Experimental findings from US10183015B2, “Heterocyclic compounds and methods of use” (Medivation Technologies LLC, priority 2015, dated 2019) are described below.

In the first experiment the test system is HepG2 cells. Put plainly: HepG2 cell viability under serum-free conditions (MTS). As to conditions: Homo sapiens, HepG2, 72 h; 5 μM, 3 days, DMEM without FBS; read-out: Average Viability (% Inhibition, n = 3). The class given is cell-based. As for the experimental part: Cancer cells such as HepG2 cells depend on SREBP activation and de novo lipogenesis to survive, particularly in low serum or serum-free conditions. Using this model, compounds were screened over 24 hours for the ability to block cleavage of SREBP to its active form and over 72 hours for an effect on cell viability under serum-free conditions.
For viability measurements, HepG2 cells were seeded at 5,000 cells per well in 96-well plates in DMEM supplemented with 10% FBS. After 1 day in culture, cells were treated with compounds (20 μM & 5 μM) for 3 days in DMEM without FBS. Viability was measured by MTS […]. […]
In the case of `O=S(=O)(Nc1ccc(-c2csc(-c3ccnc(CC4CCCCC4)c3)n2)c(Cl)c1)C(F)(F)F` [Compound 70, N-(3-chloro-4-{2-[2-(cyclohexylmethyl)pyridin-4-yl]-1,3-thiazol-4-yl}phenyl)-1,1,1-trifluoromethanesulfonamide], the cytotoxicity at 5 µM was determined as 100%.

On to `O=S(=O)(Nc1ccc(-c2csc(-c3cccc4ccccc34)n2)c(Cl)c1)C(F)(F)F` [Compound 71, N-{3-chloro-4-[2-(naphthalen-1-yl)-1,3-thiazol-4-yl]phenyl}-1,1,1-trifluoromethanesulfonamide], for which the cytotoxicity at 5 µM came to 97%.

With `O=S(=O)(Nc1ccc(-c2csc(-c3ccc4cc[nH]c4c3)n2)c(Cl)c1)C(F)(F)F` [Compound 72, N-{3-chloro-4-[2-(1H-indol-6-yl)-1,3-thiazol-4-yl]phenyl}-1,1,1-trifluoromethanesulfonamide], the cytotoxicity at 5 µM was 94%.

For `O=S(=O)(Nc1ccc(-c2csc(-c3ccc(C(F)(F)F)c(OCc4ccccc4)c3)n2)c(Cl)c1)C(F)(F)F` [Compound 73, N-(4-{2-[3-(benzyloxy)-4-(trifluoromethyl)phenyl]-1,3-thiazol-4-yl}-3-chlorophenyl)-1,1,1-trifluoromethanesulfonamide], the cytotoxicity at 5 µM came to 99%.

`O=S(=O)(Nc1ccc(-c2csc(-c3ccccc3-c3ccccc3)n2)c(Cl)c1)C(F)(F)F` [Compound 74, N-{3-chloro-4-[2-(2-phenylphenyl)-1,3-thiazol-4-yl]phenyl}-1,1,1-trifluoromethanesulfonamide]: the cytotoxicity at 5 µM was found to be 97%.

With `O=S(=O)(Nc1ccc(-c2csc(-c3cncc4ccccc34)n2)c(Cl)c1)C(F)(F)F` [Compound 75, N-{3-chloro-4-[2-(isoquinolin-4-yl)-1,3-thiazol-4-yl]phenyl}-1,1,1-trifluoromethanesulfonamide], the cytotoxicity at 5 µM is 88%.

As to `CN1CCN(c2cc(-c3nc(-c4ccc(NS(=O)(=O)C(F)(F)F)cc4Cl)cs3)ccn2)CC1` [Compound 76, N-(3-chloro-4-{2-[2-(4-methylpiperazin-1-yl)pyridin-4-yl]-1,3-thiazol-4-yl}phenyl)-1,1,1-trifluoromethanesulfonamide], the cytotoxicity at 5 µM was found to be 3%.

Regarding `Cc1noc(C)c1-c1nc(-c2ccc(NS(=O)(=O)C(F)(F)F)cc2Cl)cs1` [Compound 77, N-{3-chloro-4-[2-(dimethyl-1,2-oxazol-4-yl)-1,3-thiazol-4-yl]phenyl}-1,1,1-trifluoromethanesulfonamide], the cytotoxicity at 5 µM was found to be 41%.

On to `Cc1ccc(S(=O)(=O)Nc2cccc(-c3nc(-c4ccc(NS(=O)(=O)C(F)(F)F)cc4Cl)cs3)c2)cc1` [Compound 78, N-{3-[4-(2-chloro-4-trifluoromethanesulfonamidophenyl)-1,3-thiazol-2-yl]phenyl}-4-methylbenzene-1-sulfonamide], for which the cytotoxicity at 5 µM stood at 87%.

For `COc1ccc(-c2nc(-c3ccc(NS(=O)(=O)C(F)(F)F)cc3Cl)cs2)cc1OC` [Compound 79, N-{3-chloro-4-[2-(3,4-dimethoxyphenyl)-1,3-thiazol-4-yl]phenyl}-1,1,1-trifluoromethanesulfonamide], the cytotoxicity at 5 µM was determined as 74%.

Consider `O=S(=O)(Nc1ccc(-c2csc(-c3cccc4[nH]ccc34)n2)c(Cl)c1)C(F)(F)F` [Compound 80, N-{3-chloro-4-[2-(1H-indol-4-yl)-1,3-thiazol-4-yl]phenyl}-1,1,1-trifluoromethanesulfonamide], for which the cytotoxicity at 5 µM is 86%.

As to `O=S(=O)(Nc1ccc(-c2csc(-c3ccc(F)cc3C(F)(F)F)n2)c(Cl)c1)C(F)(F)F` [Compound 81, N-[3-chloro-4-[2-[4-fluoro-2-(trifluoromethyl)phenyl]thiazol-4-yl]phenyl]-1,1,1-trifluoro-methanesulfonamide], the cytotoxicity at 5 µM was found to be 88%.

In the case of `O=S(=O)(Nc1ccc(-c2csc(-c3ccc4c(c3)CCO4)n2)c(Cl)c1)C(F)(F)F` [Compound 82, N-{3-chloro-4-[2-(2,3-dihydro-1-benzofuran-5-yl)-1,3-thiazol-4-yl]phenyl}-1,1,1-trifluoromethanesulfonamide], the cytotoxicity at 5 µM was found to be 82%.

Take `O=S(=O)(Nc1ccc(-c2csc(-c3cccc(CO)c3)n2)c(Cl)c1)C(F)(F)F` [Compound 83, N-(3-chloro-4-{2-[3-(hydroxymethyl)phenyl]-1,3-thiazol-4-yl}phenyl)-1,1,1-trifluoromethanesulfonamide]: the cytotoxicity at 5 µM was 0%.

As to `O=S(=O)(Nc1ccc(-c2csc(-c3ccccc3CO)n2)c(Cl)c1)C(F)(F)F` [Compound 84, N-(3-chloro-4-{2-[2-(hydroxymethyl)phenyl]-1,3-thiazol-4-yl}phenyl)-1,1,1-trifluoromethanesulfonamide], the cytotoxicity at 5 µM worked out at 18%.

Consider `O=S(=O)(Nc1ccc(-c2csc(-c3ccnc(N4CCCCC4)c3)n2)c(Cl)c1)C(F)(F)F` [Compound 85, N-(3-chloro-4-{2-[2-(piperidin-1-yl)pyridin-4-yl]-1,3-thiazol-4-yl}phenyl)-1,1,1-trifluoromethanesulfonamide], for which the cytotoxicity at 5 µM was 93%.

For the molecule `Cc1cnccc1-c1nc(-c2ccc(NS(=O)(=O)C(F)(F)F)cc2Cl)cs1` [Compound 86, N-{3-chloro-4-[2-(3-methylpyridin-4-yl)-1,3-thiazol-4-yl]phenyl}-1,1,1-trifluoromethanesulfonamide], the cytotoxicity at 5 µM came out at 27%.

Take `O=S(=O)(Nc1ccc(-c2csc(-c3ccnc4[nH]ccc34)n2)c(Cl)c1)C(F)(F)F` [Compound 87, N-[3-chloro-4-(2-{1H-pyrrolo[2,3-b]pyridin-4-yl}-1,3-thiazol-4-yl)phenyl]-1,1,1-trifluoromethanesulfonamide]: the cytotoxicity at 5 µM worked out at 9%.

The same experiment, now with this note: Homo sapiens, HepG2, 72 h; 20 μM, 3 days, DMEM without FBS; read-out: Average Viability (% Inhibition, n = 3).
On to `CCCc1cc(-c2nc(-c3ccc(NS(=O)(=O)C(F)(F)F)cc3)cs2)ccn1` [Compound 1, 1,1,1-trifluoro-N-(4-(2-(2-propylpyridin-4-yl)thiazol-4-yl)phenyl)methanesulfonamide], for which the cytotoxicity at 20 µM came to 92.1%.

For the molecule `CCCc1cc(-c2nc(-c3cccc(NS(=O)(=O)C(F)(F)F)c3)cs2)ccn1` [Compound 2, 1,1,1-trifluoro-N-(3-(2-(2-propylpyridin-4-yl)thiazol-4-yl)phenyl)methanesulfonamide], the cytotoxicity at 20 µM was 80.5%.

In the case of `CCCc1cc(-c2nc(-c3ccc(NS(=O)(=O)C(F)(F)F)cc3Cl)cs2)ccn1` [Compound 4, N-(3-chloro-4-(2-(2-propylpyridin-4-yl)thiazol-4-yl)phenyl)-1,1,1-trifluoromethanesulfonamide], the cytotoxicity at 20 µM was 94.4%.

In the case of `COc1cc(-c2csc(-c3ccnc(CC(C)C)c3)n2)ccc1NS(=O)(=O)C(F)(F)F` [Compound 57, 1,1,1-trifluoro-N-(2-methoxy-4-{2-[2-(2-methylpropyl)pyridin-4-yl]-1,3-thiazol-4-yl}phenyl) methanesulfonamide], the cytotoxicity at 20 µM was found to be 56.4%.

On to `CCCc1cc(-c2nc(-c3ccc(NS(=O)(=O)C(F)(F)F)c(OC)c3)cs2)ccn1` [Compound 58, 1,1,1-trifluoro-N-{2-methoxy-4-[2-(2-propylpyridin-4-yl)-1,3-thiazol-4-yl]phenyl}methanesulfonamide], for which the cytotoxicity at 20 µM was determined as 67.9%.

Consider `COc1cc(-c2csc(-c3ccnc(C(C)(C)C)c3)n2)ccc1NS(=O)(=O)C(F)(F)F` [Compound 59, N-(4-(2-(2-tert-butylpyridin-4-yl)thiazol-4-yl)-2-methoxyphenyl)-1,1,1-trifluoromethanesulfonamide], for which the cytotoxicity at 20 µM is 99.8%.

For `O=S(=O)(Nc1ccc(-c2csc(-c3ccnc(Cc4ccccc4)c3)n2)c(Cl)c1)C(F)(F)F` [Compound 60, N-{4-[2-(2-benzylpyridin-4-yl)-1,3-thiazol-4-yl]-3-chlorophenyl}-1,1,1-trifluoromethanesulfonamide], the cytotoxicity at 20 µM is 100%.

With `Nc1cc(-c2nc(-c3ccc(NS(=O)(=O)C(F)(F)F)cc3Cl)cs2)ccn1` [Compound 61, N-{4-[2-(2-aminopyridin-4-yl)-1,3-thiazol-4-yl]-3-chlorophenyl}-1,1,1-trifluoromethanesulfonamide], the cytotoxicity at 20 µM was 43%.

For `CS(=O)(=O)Nc1cc(-c2nc(-c3ccc(NS(=O)(=O)C(F)(F)F)cc3Cl)cs2)ccn1` [Compound 62, N-{3-chloro-4-[2-(2-methanesulfonamidopyridin-4-yl)-1,3-thiazol-4-yl]phenyl}-1,1,1-trifluoromethanesulfonamide], the cytotoxicity at 20 µM came out at 0%.

Regarding `O=S(=O)(Nc1ccc(-c2csc(-c3ccnc(CCC(F)(F)F)c3)n2)c(Cl)c1)C(F)(F)F` [Compound 64, N-(3-chloro-4-{2-[2-(3,3,3-trifluoropropyl)pyridin-4-yl]-1,3-thiazol-4-yl}phenyl)-1,1,1-trifluoromethanesulfonamide], the cytotoxicity at 20 µM worked out at 100%.

As for `O=S(=O)(Nc1ccc(-c2csc(-c3ccnc(NS(=O)(=O)C(F)(F)F)c3)n2)c(Cl)c1)C(F)(F)F` [Compound 66, N-{3-chloro-4-[2-(2-trifluoromethanesulfonamidopyridin-4-yl)-1,3-thiazol-4-yl]phenyl}-1,1,1-trifluoromethanesulfonamide], the cytotoxicity at 20 µM was found to be 11%.

For the molecule `O=C(c1ccc(-c2nc(-c3ccc(NS(=O)(=O)C(F)(F)F)cc3Cl)cs2)cc1)N1CCCCC1` [Compound 67, N-(3-chloro-4-{2-[4-(piperidine-1-carbonyl)phenyl]-1,3-thiazol-4-yl}phenyl)-1,1,1-trifluoromethanesulfonamide], the cytotoxicity at 20 µM was 20%.
